Key:
UACC-62 = experiment: cells; conditions: Homo sapiens, UACC-62, 48 h
M14 = experiment: cells; conditions: Homo sapiens, M14, 48 h
RPMI-8226 = experiment: cells; conditions: Homo sapiens, RPMI-8226, 48 h
PC-3 = experiment: cells; conditions: Homo sapiens, PC-3, 48 h
A498 = experiment: cells; conditions: Homo sapiens, A498, 48 h
EKVX = experiment: cells; conditions: Homo sapiens, 48 h
LOX IMVI = experiment: cells; conditions: Homo sapiens, 48 h
SNB-19 = experiment: cells; conditions: Homo sapiens, SNB-19, 48 h
BT-549 = experiment: cells; conditions: Homo sapiens, BT-549, 48 h
COLO 205 = experiment: cells; conditions: Homo sapiens, COLO 205, 48 h
MOLT-4 = experiment: cells; conditions: Homo sapiens, MOLT-4, 48 h
SF-539 = experiment: cells; conditions: Homo sapiens, SF-539, 48 h
HCT-116 = experiment: cells; conditions: Homo sapiens, HCT-116, 48 h
RXF 393 = experiment: cells; conditions: Homo sapiens, RXF 393, 48 h
NCI-H226 = experiment: cells; conditions: Homo sapiens, NCI-H226, 48 h
SF-295 = experiment: cells; conditions: Homo sapiens, SF-295, 48 h
MDA-MB-231/ATCC = experiment: cells; conditions: Homo sapiens, MDA-MB-231, 48 h
UACC-257 = experiment: cells; conditions: Homo sapiens, UACC-257, 48 h
HT29 = experiment: cells; conditions: Homo sapiens, HT-29, 48 h
786-0 = experiment: cells; conditions: Homo sapiens, 786-0, 48 h
NCI-H322M = experiment: cells; conditions: Homo sapiens, 48 h
U251 = experiment: cells; conditions: Homo sapiens, U-251, 48 h
ACHN = experiment: cells; conditions: Homo sapiens, 48 h
HCC-2998 = experiment: cells; conditions: Homo sapiens, HCC 2998, 48 h
MDA-MB-468 = experiment: cells; conditions: Homo sapiens, MDA-MB-468, 48 h
SNB-75 = experiment: cells; conditions: Homo sapiens, SNB-75, 48 h
A549/ATCC = experiment: cells; conditions: Homo sapiens, A549, 48 h
HOP-62 = experiment: cells; conditions: Homo sapiens, HOP-62, 48 h
HS 578T = experiment: cells; conditions: Homo sapiens, 48 h
HOP-92 = experiment: cells; conditions: Homo sapiens, HOP-92, 48 h
OVCAR-3 = experiment: cells; conditions: Homo sapiens, OVCAR-3, 48 h
SK-MEL-5 = experiment: cells; conditions: Homo sapiens, SK-MEL-5, 48 h
SF-268 = experiment: cells; conditions: Homo sapiens, SF-268, 48 h
HCT-15 = experiment: cells; conditions: Homo sapiens, HCT-15, 48 h
60 cancer cell lines = experiment: NCI-60 one-dose screen (10 μM); format: cell-based; conditions: Homo sapiens; one dose of 10 μM, mean over 60 cancer cell lines; read-out: Mean Growth Percent (MGP)
Excerpt: Additionally, the mean of the growth percentages (MGP) of each compound against all the 60 cancer cell lines is also reported, which is used as one of the selection criteria to continue with tests at five concentration doses.

UO-31 = experiment: cells; conditions: Homo sapiens, UO-31, 48 h

Structure (SMILES): Nc1nc(N)c2c(n1)NC(c1ccc(F)cc1)CC(c1ccc(Nc3nc(NCCO)nc(Nc4ccc(Cl)cc4)n3)cc1)=N2 (stereo not shown) [33f]
- GI50 (UACC-62): 1.96 µM
- GI50 (M14): 1.66 µM
- CC50 (M14; read-out: LC50): 6.58 µM
- GI50 (RPMI-8226): 1.01 µM
- CC50 (RPMI-8226; read-out: LC50): > 100 µM
- GI50 (PC-3): 1.72 µM
- CC50 (PC-3; read-out: LC50): > 100 µM
- GI50 (A498): 3.72 µM
- CC50 (A498; read-out: LC50): 39.1 µM
- GI50 (EKVX): 1.66 µM
- CC50 (EKVX; read-out: LC50): 24 µM
- GI50 (LOX IMVI): 1.52 µM
- GI50 (SNB-19): 1.76 µM
- GI50 (BT-549): 1.56 µM
- CC50 (BT-549; read-out: LC50): 6.47 µM
- GI50 (COLO 205): 1.49 µM
- CC50 (COLO 205; read-out: LC50): 5.8 µM
- GI50 (MOLT-4): 0.532 µM
- CC50 (MOLT-4; read-out: LC50): > 100 µM
- GI50 (SF-539): 1.56 µM
- CC50 (SF-539; read-out: LC50, SF-539, 48 h): 6.36 µM
- GI50 (HCT-116): 1.2 µM
- CC50 (HCT-116; read-out: LC50): 5.23 µM
- GI50 (RXF 393): 1.17 µM
- CC50 (RXF 393; read-out: LC50): 5.9 µM
- GI50 (NCI-H226): 2.49 µM
- CC50 (NCI-H226; read-out: LC50): 37.9 µM
- GI50 (SF-295): 1.96 µM
- CC50 (SF-295; read-out: LC50): 7.15 µM
- GI50 (MDA-MB-231/ATCC): 1.78 µM
- GI50 (UACC-257): 1.85 µM
- CC50 (UACC-257; read-out: LC50): 6.69 µM
- GI50 (HT29): 1.42 µM
- CC50 (HT29; read-out: LC50): 7.01 µM
- GI50 (786-0): 1.36 µM
- CC50 (786-0; read-out: LC50): 7.12 µM
- GI50 (NCI-H322M): 2.43 µM
- CC50 (NCI-H322M; read-out: LC50): 33.5 µM
- GI50 (U251; U251, 48 h): 1.37 µM
- CC50 (U251; read-out: LC50): 5.43 µM
- GI50 (ACHN): 3.22 µM
- CC50 (ACHN; read-out: LC50): > 100 µM
- GI50 (HCC-2998): 1.61 µM
- CC50 (HCC-2998; read-out: LC50): 5.78 µM
- GI50 (MDA-MB-468): 1.48 µM
- CC50 (MDA-MB-468; read-out: LC50): 6.7 µM
- GI50 (SNB-75): 3.35 µM
- CC50 (SNB-75; read-out: LC50): 45.4 µM
- GI50 (A549/ATCC): 3.12 µM
- CC50 (A549/ATCC; read-out: LC50): > 100 µM
- GI50 (HOP-62): 1.77 µM
- CC50 (HOP-62; read-out: LC50): 11.7 µM
- GI50 (HS 578T): 2.04 µM
- CC50 (HS 578T; read-out: LC50): > 100 µM
- GI50 (HOP-92): 1.25 µM
- CC50 (HOP-92; read-out: LC50): 10.2 µM
- GI50 (OVCAR-3): 1.58 µM
- CC50 (OVCAR-3; read-out: LC50): 6.82 µM
- GI50 (SK-MEL-5): 1.46 µM
- CC50 (SK-MEL-5; read-out: LC50): 5.3 µM
- GI50 (SF-268): 2.85 µM
- CC50 (SF-268; read-out: LC50): 76 µM
- GI50 (HCT-15): 1.03 µM
- CC50 (HCT-15; read-out: LC50): 7.87 µM
- activity at 10 µM (60 cancer cell lines): -3.41%
- GI50 (UO-31): 3.07 µM
- CC50 (UO-31; read-out: LC50): > 100 µM

From publication PMC11012124, “Synthesis of Novel Triazine-Based Chalcones and 8,9-dihydro-7H-pyrimido[4,5-b][1,4]diazepines as Potential Leads in the Search of Anticancer, Antibacterial and Antifungal Agents” (International Journal of Molecular Sciences, 2024)
